Measured values reported in US8519136B2, “Aminopyridine derivatives having aurora a selective inhibitory action” (MSD K.K., priority 2008, dated 2013).
Where a name gives a salt, the structure may show the parent alone.

Assays:
[1] = biological target: T1, His-tagged human Aurora A (Homo sapiens, UniProt O14965); assay: Aurora A inhibitory activity (IMAP fluorescence polarization); format: biochemical; details: 20 μM ATP, 30° C., 120 minutes
T1 construct: His (N); made in house; host or cells: Escherichia coli BL21-CodonPlus(DE3)-RIL
T1 sequence (O14965 1-403): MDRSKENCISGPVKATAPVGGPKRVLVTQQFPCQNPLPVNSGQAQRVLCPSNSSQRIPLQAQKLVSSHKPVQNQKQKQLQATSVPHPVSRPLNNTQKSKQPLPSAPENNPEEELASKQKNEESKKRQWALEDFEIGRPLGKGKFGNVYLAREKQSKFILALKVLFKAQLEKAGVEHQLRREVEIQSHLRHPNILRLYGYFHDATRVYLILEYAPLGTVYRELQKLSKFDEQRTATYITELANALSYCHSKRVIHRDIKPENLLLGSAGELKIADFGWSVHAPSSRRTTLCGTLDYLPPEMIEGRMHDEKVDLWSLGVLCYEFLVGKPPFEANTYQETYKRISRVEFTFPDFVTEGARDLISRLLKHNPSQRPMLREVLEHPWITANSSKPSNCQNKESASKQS
Description: cDNA of N-terminal His-tagged human Aurora A was integrated into an expression vector, which was then highly expressed in Escherichia coli BL21-CodonPlus(DE3)-RIL cells. The Escherichia coli was harvested and lysed, and then the His-tagged human Aurora A protein was applied onto a nickel chelate column and eluted from the column with imidazole. The active fractions were desalted with a desalting column to give a purified enzyme.
For measurement of the activity of Aurora A, the substrate used was a synthetic peptide (5-FAM (5-carboxyfluorescein)-γ-aminobutyric acid-Ala-Leu-Arg-Arg-Ala-Ser-Leu-Gly-NH2) (SEQ.ID.NO.: 1), which was purchased from Toray Research Center, Inc.
For the phosphorylation reaction, the method by Upstate, Inc. [Kinase Profiler™ Assay Protocols] was referred to, and phosphorylation of the substrate was detected using IMAP® technology (Molecular Devices, Co. Ltd.) (Gaudet E W. et. al, J. Biomol. Screen, 8, 164-175 (2003)). Concretely, the phosphorylation reaction and the detection were carried out as follows:
The phosphorylation reaction was conducted using 384 well plate, and the reaction volume was 10 μl/well. The reaction buffer is comprised of 50 mM Tris-chloride buffer (pH 7.4), 15 mM magnesium acetate, and 0.2 mM ethylenediamine-N,N,N′,N′-tetraacetic acid (EDTA). Thereto, the purified Aurora A protein, 100 nM of the peptide substrate, and 20 μM of adenosine 5′-triphosphate (ATP) were added, and then the reaction was carried out at 30° C. for 120 minutes.
Thereafter, in order to terminate and detect the reaction, 30 μl of the IMAP (registered trademark) binding reagent (IMAP Progressive Binding Reagent, R7284) that had been diluted (1:400) in the 1×IMAP binding buffer A (IMAP Progressive Binding Buffer A, 5× stock, R7282) was added to each well. The solution stood still for 60 minutes in the dark, and then fluorescence polarization was measured using a high-end microplate reader (excitation wavelength: 485 nm; emission wavelength: 520 nm).
(§1) The compound to be tested was added to the reaction system such that a dilution series of the compound in dimethylsulfoxide (DMSO) was prepared, and then 0.5 μL of this solution was added for the testing to each well. Each control well was provided by adding 0.5 μL of DMSO to the well in place of the DMSO solution containing the compound to be tested.

[2] = biological target: T2, GST-tagged human Aurora B(AurB)/His-tagged human INCENP complex proteins (Homo sapiens, UniProt Q96GD4); assay: Aurora B inhibitory activity (Method A, IMAP kit); format: biochemical; details: 40 μM ATP, 25° C., 45 minutes
T2 construct: GST; purchased Carna Biosciences, Inc
Description: An assay development kit for IMAP (registered trademark) (Aurora B), purchased from Carna Biosciences, Inc., was used for phosphorylation reaction, and the phosphorylation of a substrate was detected using the IMAP technology. The assay development kit used is comprised of an assay buffer, GST-tagged human Aurora B(AurB)/His-tagged human INCENP complex proteins (amino acid sequence: 803-916, AAU04398.1), and an ATP/substrate solution. Using the same, the phosphorylation reaction was conducted in accordance with a partially revised protocol attached to the kit, and then the phosphorylation of the substrate was detected using the IMAP technology.
For the phosphorylation reaction, 384 well plate was used, and the reaction volume was 10 μl/well. The composition of the reaction buffer (assay buffer) is comprised of 20 mM of HEPES buffer (pH 7.4), 0.01% Tween-20, and 2 mM of dithiothreitol (DTT). Thereto, AurB/INCENP complex protein, 100 nM of the substrate, and 40 μM of ATP, and 1 mM of magnesium salt were added, and then the reaction was conducted at 25° C. for 45 minutes. Thereafter, in order to terminate and detect the reaction, 30 μl of the IMAP (registered trademark) binding reagent (IMAP Progressive Binding Reagent, R7284) that had been diluted (1:400) in the 1×IMAP binding buffer A (IMAP Progressive Binding Buffer A, 5× stock, R7282) was added to each well. The solution stood still for 60 minutes in the dark, and then fluorescence polarization was measured using a high-end microplate reader (excitation wavelength: 485 nm; emission wavelength: 520 nm).
as §1, with “DMSO” for “dimethylsulfoxide (DMSO)”

[3] = system: Human cervical cancer cells (HeLa S3); assay: Effect by combined use of drugs in cells (with docetaxel), WST-8 method; format: cell-based; details: docetaxel 0.3 nM alone, HeLa S3, three days, DMSO = 0%
Description: Fetal calf serum (FCS) was purchased from Moregate Biotech, DMEM medium from Invitrogen Corp., docetaxel (tradename: Taxere) from Sigma-Aldrich, Inc., and WST-8 from Kishida Chemical Co., Ltd.
Human cervical cancer cells (HeLa S3) were obtained from the American Type Culture Collection (ATCC).
Cells were suspended in a DMEM medium containing 10% FCS, and the cell suspension was dispensed to two 96-well plastic plates at a rate of 750 cells/100 microliters per well. The plates were incubated overnight in 5% CO2-95% air at 37° C. A drug was subjected to graded dilution in dimethylsulfoxide and further diluted with DMSO or with a DMEM medium containing 10% FCS and also containing 0.6 nM docetaxel. Then, the dilutions were each dispensed to one of the plates on which cells had been disseminated, at a rate of 100 microliters per well. The final concentration of docetaxel at this stage was 0.3 nM. Also, the concentrations in the case of sole administration of the compound according to the invention were 0.003, 0.01, 0.03, 0.1, 0.3, 1, 3 and 10 μM. The plates were incubated for further three days in 5% CO2-95% air at 37° C. Cell growth after incubation was measured by the WST-8 method (H. Tominaga, et al., Anal. Commun., 36, 47-50 (1999)). Here, the WST-8 method refers to a method in which 20 microliters of a WST-8 reagent solution is added to each well, incubation is conducted at 37° C. for 60 minutes, the plate is stirred, and the amount of formazan produced is measured by a colorimetric method to determine the inhibitory rate of the drug. The growth inhibitory effects of docetaxel and of the compound according to the invention were determined, with the value obtained in sole treatment of DMSO being defined as 0%.

T2 sequence (Q96GD4 whole entry): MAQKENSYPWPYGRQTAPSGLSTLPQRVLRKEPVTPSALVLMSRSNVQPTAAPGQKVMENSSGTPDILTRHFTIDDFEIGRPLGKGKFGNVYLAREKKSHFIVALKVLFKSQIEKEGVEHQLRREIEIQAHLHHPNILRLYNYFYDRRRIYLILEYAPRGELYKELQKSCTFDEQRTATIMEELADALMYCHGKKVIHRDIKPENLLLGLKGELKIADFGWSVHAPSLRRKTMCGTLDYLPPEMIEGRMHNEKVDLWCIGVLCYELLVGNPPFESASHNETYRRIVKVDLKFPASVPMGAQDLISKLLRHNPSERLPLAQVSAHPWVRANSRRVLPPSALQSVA
T2 sequence (Q9NQS7 803-916 partner limits assumed): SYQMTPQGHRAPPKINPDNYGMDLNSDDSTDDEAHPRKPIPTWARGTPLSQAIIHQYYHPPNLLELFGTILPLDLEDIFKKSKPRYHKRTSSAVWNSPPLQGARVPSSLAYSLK

Row | Structure (SMILES) | IC50 [1] | IC50 [2] | inhibition at 0.0003 µM ([3]; Homo sapiens, HeLa S3, 72 h, read-out: Cell growth inhibitory effect by sole administration of docetaxel (0.3 nM) (%)) | Cell growth inhibitory effect by sole administration of docetaxel (0.3 nM) (%) [3]
1 | O=C(c1cccc(F)c1F)N1CCC(Cc2cccc(Nc3cc[nH]n3)n2)(c2n[nH]c(=O)o2)CC1 [Example 11, 5-(1-(2,3-difluorobenzoyl)-4-((6-(1H-pyrazol-3-ylamino)pyridin-2-yl)methyl)piperidin-4-yl)-1,3,4-oxadiazol-2(3H)-one trifluoroacetate] | 0.26 nM | 236 nM | – | –
2 | O=c1[nH]nc(C2(Cc3cccc(Nc4cc[nH]n4)n3)CCN(S(=O)(=O)c3cccc(Cl)c3Cl)CC2)o1 [Example 13, 5-(1((2,3-dichlorophenyl)sulfonyl)-4((6-(1H-pyrazol-3-ylamino)pyridin-2-yl)methyl)piperidin-4-yl)-1,3,4-oxadiazol-2(3H)-one trifluoroacetate] | 2.55 nM | 609 nM | – | –
3 | Cc1cc(Nc2cccc(CC3(c4n[nH]c(=O)o4)CCN(C(=O)c4cccc(F)c4F)CC3)n2)n[nH]1 [Example 16, 5-(1-(2,3-difluorobenzoyl)-4-((6-((5-methyl-1H-pyrazol-3-yl)amino)pyridin-2-yl)methyl)piperidin-4-yl)-1,3,4-oxadiazol-2(3H)-one] | 0.41 nM | 157 nM | – | –
4 | Cc1cc(Nc2cccc(CC3(c4n[nH]c(=O)o4)CCN(C(=O)c4cccc(Cl)c4F)CC3)n2)n[nH]1 [Example 15, 5-(1-(3-chloro-2-fluorobenzoyl)-4-((6-((5-methyl-1H-pyrazol-3-yl)amino)pyridin-2-yl)methyl)piperidin-4-yl)-1,3,4-oxadiazol-2(3H)-one] | 0.25 nM | 77.5 nM | – | –
5 | Cc1cc(Nc2cc[nH]n2)nc(CC2CCN(C(=O)c3cccc(Cl)c3F)CC2)n1 [Example 3, 2-((1-(3-chloro-2-fluorobenzoyl)piperidin-4-yl)methyl)-6-methyl-N-1H-pyrazol-3-ylpyrimidin-4-amine trifluoroacetate] | 1.6 nM | 400 nM | – | –
6 | Cc1cc(Nc2cc[nH]n2)nc(CC2(C(N)=O)CCN(C(=O)c3cccc(Cl)c3F)CC2)n1 [Example 18, 1-(3-chloro-2-fluorobenzoyl)-4-((4-methyl-6-(1H-pyrazol-3-ylamino)pyrimidin-2-yl)methyl)piperidine-4-carboxamide trifluoroacetate] | 1.23 nM | > 1000 nM | – | –
7 | CC(=O)O[C@@]12CO[C@@H]1C[C@H](O)[C@@]1(C)C(=O)[C@H](O)C3=C(C)[C@@H](OC(=O)[C@H](O)[C@@H](NC(=O)OC(C)(C)C)c4ccccc4)C[C@@](O)([C@@H](OC(=O)c4ccccc4)[C@H]21)C3(C)C [docetaxel, reference compound] | – | – | 49.6% | 51.6%

Second part, led by results:

Row | IC50 [1] | IC50 [2] | Structure (SMILES) | inhibition at 0.0003 µM ([3]; Homo sapiens, HeLa S3, 72 h, read-out: Cell growth inhibitory effect by sole administration of docetaxel (0.3 nM) (%)) | Cell growth inhibitory effect by sole administration of docetaxel (0.3 nM) (%) [3]
8 | 1.57 nM | > 1000 nM | NC(=O)C1(Cc2cccc(Nc3cc[nH]n3)n2)CCN(C(=O)c2cccc(Cl)c2F)CC1 [Example 6, 1-(3-chloro-2-fluorobenzoyl)-4-((6-(1H-pyrazol-3-ylamino)pyridin-2-yl)methyl)piperidine-4-carboxamide] | – | –
9 | 0.79 nM | 555 nM | CONC(=O)C1(Cc2cccc(Nc3cc[nH]n3)n2)CCN(C(=O)c2cccc(C(F)(F)F)c2F)CC1 [Example 8, 1-(2-fluoro-3-(trifluoromethyl)benzoyl)-N-methoxy-4-((6-(1H-pyrazol-3-ylamino)pyridin-2-yl)methyl)piperidine-4-carboxamide] | – | –
10 | 0.63 nM | 555 nM | CCOC(=O)C1(Cc2cccc(Nc3cc[nH]n3)n2)CCN(C(=O)c2cccc(C(F)(F)F)c2F)CC1 [Example 5, ethyl 1-(2-fluoro-3-(trifluoromethyl)benzoyl)-4-((6-(1H-pyrazol-3-ylamino)pyridin-2-yl)methyl)piperidine-4-carboxylate] | – | –
11 | 1.14 nM | > 1000 nM | CCOC(=O)C1(Cc2cccc(Nc3cc[nH]n3)n2)CCN(C(=O)c2cccc(Cl)c2F)CC1 [Example 4, ethyl 1-(3-chloro-2-fluorobenzoyl)-4-((6-(1H-pyrazol-3-ylamino)pyridin-2-yl)methyl)piperidine-4-carboxylate] | – | –
12 | 0.61 nM | 135 nM | NC(=O)C1(Cc2cccc(Nc3cc[nH]n3)n2)CCN(C(=O)c2cccc(C(F)(F)F)c2F)CC1 [Example 7, 1-(2-fluoro-3-(trifluoromethyl)benzoyl)-4-((6-(1H-pyrazol-3-ylamino)pyridin-2-yl)methyl)piperidine-4-carboxamide] | – | –
